One experiment has as its target T1, Alk (Homo sapiens, UniProt Q9UM73).
T1 construct: 6×His- or GST-tagged kinase domain fragments of the corresponding RTKs expressed in baculovirus system; host or cells: baculovirus system
Put plainly: Tyrosine kinase assay (Kinase-Glo or AlphaScreen), Alk. To be noted: biochemical tyrosine kinase assay. In outline:
(§1)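 Phosphorylation of poly(Glu-Tyr) by baculovirus-made kinase domains, 10 μM ATP, measured either as ATP depletion (Kinase-Glo, 37° C, 1 h) or phosphotyrosine AlphaScreen (room temperature, 30 min plus 60 min with beads).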

In another experiment the test system is Ba/F3. Kind of experiment: Cell proliferation inhibition, Cell Titer-Glo, Ba/F3. It is filed as cell-based. The following applies: Mus musculus, BaF3; cell proliferation assay, Ba/F3 cells. In outline: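 This standard 3-day proliferation assay used Ba/F3 cells plated in 384-well white plates with clear bottoms at 2500-5000 cells per well and treated with compound dilutions. Viable cell number was determined by mixing in Cell Titer-Glo developing reagent according to the manufacturer's protocol and counting luminescence. Percent viability relative to day 0 and untreated wells produced IC50 curves.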
On the technique in general: In ATP-based viability assays light output follows the ATP content of the culture.

The target in another experiment is T2, Jak2 (Homo sapiens, UniProt O60674).
T2 construct: 6×His- or GST-tagged kinase domain fragments of the corresponding RTKs expressed in baculovirus system; host or cells: baculovirus system
Kind of experiment: Tyrosine kinase assay (Kinase-Glo or AlphaScreen), Jak2. The following applies: biochemical tyrosine kinase assay. A digest of the protocol:
as §1

Another experiment deals with Karpas-299. Kind of experiment: Cell proliferation inhibition, Cell Titer-Glo, Karpas-299. The following applies: Homo sapiens; cell proliferation assay, Karpas-299 cells. It is filed as cell-based. In outline: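 In this standard 3-day proliferation assay, Karpas 299 cells plated at 2500-5000 cells per well in 384-well white, clear-bottomed plates were treated with compound dilutions. Cell Titer-Glo developing reagent was added following the manufacturer's protocol, luminescence reflecting ATP content was read on a multiwell plate reader, and IC50 curves were generated.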

The next experiment concerns K562. Put plainly: Cell proliferation inhibition, Cell Titer-Glo, K562. The experiment is classed as cell-based. The following applies: Homo sapiens; cell proliferation assay, K562 cells. In outline:
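Proliferation inhibition in human K562 cells was assessed in a standard 3-day assay. Cells (2500-5000 per well) in 384-well white, clear-bottomed plates received serial compound dilutions, then Cell Titer-Glo reagent was added per the manufacturer's protocol. Luminescence reflecting ATP content of metabolically active cells was counted in a multiwell reader, and IC50 curves were generated.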

The test system of a further experiment is H929 (multiple myeloma). Put plainly: Cell proliferation inhibition, Cell Titer-Glo, H929. The following applies: Homo sapiens, NCI-H929; cell proliferation assay, H929 cells. It is filed as cell-based. A digest of the protocol: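 Cells seeded at 2500-5000 per well with serially diluted compound for typically 3 days. Viable cells measured by ATP luminescence (Cell Titer-Glo); IC50 from proliferation-inhibition curves.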

T1 sequence (Q9UM73 1116-1392 limits assumed, species assumed): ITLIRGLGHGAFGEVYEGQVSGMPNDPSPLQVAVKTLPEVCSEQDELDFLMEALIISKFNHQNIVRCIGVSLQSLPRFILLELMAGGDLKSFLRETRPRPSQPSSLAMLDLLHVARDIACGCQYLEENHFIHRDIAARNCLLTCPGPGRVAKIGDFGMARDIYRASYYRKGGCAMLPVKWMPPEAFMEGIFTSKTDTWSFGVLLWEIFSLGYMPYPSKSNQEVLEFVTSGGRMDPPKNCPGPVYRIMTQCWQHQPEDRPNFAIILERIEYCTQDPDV
T2 sequence (O60674 849-1124 limits assumed, species assumed): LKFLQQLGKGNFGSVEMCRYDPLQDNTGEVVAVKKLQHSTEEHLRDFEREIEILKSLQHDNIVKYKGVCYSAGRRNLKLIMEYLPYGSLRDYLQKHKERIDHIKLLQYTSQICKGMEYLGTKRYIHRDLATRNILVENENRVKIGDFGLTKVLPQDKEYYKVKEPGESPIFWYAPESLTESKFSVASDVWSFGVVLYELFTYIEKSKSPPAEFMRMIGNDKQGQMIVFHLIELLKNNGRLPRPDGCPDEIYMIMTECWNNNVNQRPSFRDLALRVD

Consider `CN1CCC(N2C(=O)c3cc4nc(-c5c(NC[C@@H](O)COc6ccc7ccccc7c6)cc[nH]c5=O)[nH]c4cc3C2=O)CC1` [compound 88], for which the IC50 against Alk was 0.5 to 5 µM; in the experiment on Ba/F3, 5 to 15 µM; on Jak2, 0.5 to 5 µM; in the experiment on Karpas-299, 5 to 15 µM; in the experiment with K562 it was 5 to 15 µM; with H929 (multiple myeloma), 5 to 15 µM.

As for `O=C1c2cc3nc(-c4c(NC[C@@H](O)c5cccc(Cl)c5)cc[nH]c4=O)[nH]c3cc2C(=O)N1[C@H]1CN2CCC1CC2` [compound 34], the IC50 against Alk was 0.5 to 5 µM; with Ba/F3 it was greater than 15 µM; against Jak2, 0.5 to 5 µM; with Karpas-299 it was greater than 15 µM; in the experiment on K562, greater than 15 µM; with H929 (multiple myeloma), 5 to 15 µM.

As to `Cc1ccc(OC[C@H](O)CNc2cc[nH]c(=O)c2-c2nc3c(C)c4c(cc3[nH]2)C(=O)N(C2CCN(C)CC2)C4=O)c(C)c1` [compound 110], the IC50 fell in the range of 0.5 to 5 µM against Alk; 5 to 15 µM with Ba/F3; 0.5 to 5 µM at Jak2; 0.5 to 5 µM in the experiment on Karpas-299; 5 to 15 µM in the experiment with K562; 5 to 15 µM in the experiment with H929 (multiple myeloma).

For the molecule `Cc1c(Cl)cccc1OC[C@H](O)CNc1cc[nH]c(=O)c1-c1nc2cc3c(cc2[nH]1)C(=O)N(C1CCN(C)CC1)C3=O` [compound 94], the IC50 against Alk was 0.5 to 5 µM; with Ba/F3 it was greater than 15 µM; at Jak2 it was 0.5 to 5 µM; with Karpas-299 it was greater than 15 µM; with K562, greater than 15 µM; in the experiment with H929 (multiple myeloma) it was 5 to 15 µM.

Consider `CN1CCC(N2C(=O)c3cc4nc(-c5c(NC[C@@H](O)COc6c(F)ccc(Cl)c6F)cc[nH]c5=O)[nH]c4cc3C2=O)CC1` [compound 95], for which the IC50 against Alk is 0.5 to 5 µM; in the experiment with Ba/F3, greater than 15 µM; against Jak2, 0.5 to 5 µM; with Karpas-299 it was 5 to 15 µM; with K562 it was 5 to 15 µM; in the experiment with H929 (multiple myeloma), 5 to 15 µM.

Turning to `Cc1cc(C)c(OC[C@H](O)CNc2cc[nH]c(=O)c2-c2nc3cc4c(cc3[nH]2)C(=O)N(C2CCN(C)CC2)C4=O)c(CS(C)(=O)=O)c1` [compound 84], the half-maximal inhibitory concentration (IC50) was 0.5 to 5 µM on Alk; greater than 15 µM in the experiment with Ba/F3; 0.5 to 5 µM on Jak2; greater than 15 µM with Karpas-299; greater than 15 µM in the experiment with K562; 0.5 to 5 µM with H929 (multiple myeloma).

Turning to `CN1CCC(N2C(=O)c3cc4nc(-c5c(NC[C@@H](O)COc6cccc(-c7ccccc7)c6)cc[nH]c5=O)[nH]c4cc3C2=O)CC1` [compound 89], the IC50 lay within 0.5 to 5 µM against Alk; 5 to 15 µM in the experiment on Ba/F3; 0.5 to 5 µM on Jak2; 0.5 to 5 µM with Karpas-299; 5 to 15 µM in the experiment on K562; 5 to 15 µM with H929 (multiple myeloma).

Take `Cc1ccc(OCC(O)CNc2cc[nH]c(=O)c2-c2nc3cc4c(cc3[nH]2)C(=O)N(CC2CCN(CCO)CC2)C4=O)c(C)c1` (stereo not drawn) [compound 37]: the IC50 against Alk was 5 to 15 µM; in the experiment on Ba/F3, greater than 15 µM; on Jak2, 0.5 to 5 µM; with Karpas-299, greater than 15 µM; in the experiment with K562, greater than 15 µM; in the experiment with H929 (multiple myeloma) it was 0.5 to 5 µM.

`COc1ccc(OC[C@H](O)CNc2cc[nH]c(=O)c2-c2nc3cc4c(cc3[nH]2)C(=O)N(C2CCN(C)CC2)C4=O)c(OC)c1OC` [compound 93]: the IC50 against Alk was greater than 15 µM; with Ba/F3, greater than 15 µM; on Jak2 it was greater than 15 µM; in the experiment with Karpas-299, 5 to 15 µM; in the experiment on K562, greater than 15 µM; in the experiment with H929 (multiple myeloma), 0.5 to 5 µM.

Turning to `Cc1ccc(OC[C@H](O)CNc2cc[nH]c(=O)c2-c2nc3cc4c(cc3[nH]2)C(=O)N(C2CCN(C)CC2)C4=O)c(C)c1` [compound 59], the concentration for half-maximal inhibition (IC50) at Alk was in the range of 0.5 to 5 µM; with Ba/F3, 0.5 to 5 µM; against Jak2 it was 0.5 to 5 µM; with Karpas-299 it was 0.5 to 5 µM; in the experiment with K562 it was 5 to 15 µM; with H929 (multiple myeloma), 0.5 to 5 µM.

With `CN1CCC(N2C(=O)c3cc4nc(-c5c(NC[C@@H](O)COc6cccc(OC(F)(F)C(F)F)c6)cc[nH]c5=O)[nH]c4cc3C2=O)CC1` [compound 91], the IC50 at Alk was 0.5 to 5 µM; with Ba/F3, greater than 15 µM; on Jak2 it was 0.5 to 5 µM; with Karpas-299, 5 to 15 µM; with K562, greater than 15 µM; in the experiment with H929 (multiple myeloma), 0.5 to 5 µM.

Consider `Cc1cc(C)c(OC[C@H](O)CNc2cc[nH]c(=O)c2-c2nc3cc4c(cc3[nH]2)C(=O)N(C2CCN(C)CC2)C4=O)c(C)c1` [compound 98], for which the IC50 at Alk is 0.5 to 5 µM; in the experiment with Ba/F3, greater than 15 µM; on Jak2, 5 to 15 µM; in the experiment on Karpas-299, greater than 15 µM; in the experiment on K562, greater than 15 µM; in the experiment with H929 (multiple myeloma), 5 to 15 µM.

Turning to `CN1CCC(N2C(=O)c3cc4nc(-c5c(NC[C@@H](O)COc6cccc(Cl)c6F)cc[nH]c5=O)[nH]c4cc3C2=O)CC1` [compound 96], the IC50 was greater than 15 µM against Alk; greater than 15 µM with Ba/F3; 5 to 15 µM on Jak2; greater than 15 µM in the experiment on Karpas-299; greater than 15 µM in the experiment with K562; 5 to 15 µM in the experiment on H929 (multiple myeloma).

As for `CN1CCC(N2C(=O)c3cc4nc(-c5c(NC[C@@H](O)COc6cccc7ccccc67)cc[nH]c5=O)[nH]c4cc3C2=O)CC1` [compound 87], the IC50 is 0.5 to 5 µM at Alk; greater than 15 µM in the experiment on Ba/F3; 0.5 to 5 µM on Jak2; 5 to 15 µM in the experiment on Karpas-299; 5 to 15 µM in the experiment with K562; 5 to 15 µM with H929 (multiple myeloma).

In general, IC50 refers to the concentration that gives 50% inhibition. High values mean weaker potency, low ones greater potency.

(Values after patent US8063225B2, “Tricyclic compound derivatives useful in the treatment of neoplastic diseases, inflammatory disorders and immunomodulatory disorders” (Chembridge Corporation, priority 2006, dated 2011).)
